From patent US20250157571A1, “Methods, Apparatus, and Systems for Determining the Functional Microbial Niche and Identifying Interventions in Complex Hetergeneous Communities” (The Regents of the University of California, priority 2022, published 2025)
“Also recorded” adds a separate entry of the source.

How the values were obtained:
Format in all cases: cell-based
16-member SynCom = test: Targeted interventions in the SynCom (prebiotic metabolite or probiotic strain addition), metagenomics relative abundance; conditions: 7 days; for change in relative abundance in the community upon metabolite addition: SynCom in 0.1×R2A + metabolite, three concentrations; for relative abundance of primary targets (high TE for import protein) after metabolite addition / relative abundance of secondary targets (guild competitors) after metabolite addition: SynCom in 0.1×R2A + substrate vs 0.1×R2A control
Procedure: Optical density readings at 600 nm (OD600), from isolates pre-cultures were taken with a Molecular Devices SpectraMax M3 Multi-Mode Microplate Reader (VWR, cat #89429-536). Precultures were diluted to a starting OD600 of 0.02 in 5 mL 0.1×R2A. The SynCom was assembled in large volumes to minimize pipetting error and maximize reproducibility. Briefly, 1 mL of each normalized culture (OD600=0.02) was diluted in a final volume of 250 mL 0.1×R2A and spread into 20 mL aliquots in Falcon tubes. Falcon tubes containing the SynCom inoculum were then incubated at 30° C. for 7 days, in aerobic conditions, in four biological replicates. After 7 days of culture, the SynCom samples were harvested by centrifugation and pellets were immediately treated for multi-omics analysis as detailed below (DNA-, RNA- and metaRibo-Seq).
For targeted modifications experiments carried out in the SynCom, the SynCom was assembled and cultured as described above, with modifications. Specific isolates were omitted from the SynCom assembly for the dropout experiments, as described in FIGS. 2d and 2e. Alternatively, concentrated stocks of either Burkholderia, Chitinophaga, Mucilaginibacter or Rhizobium were added as probiotics to the SynCom. Metabolites from concentrated, filter-sterilized stocks of the desired substrates were added to the medium for the prebiotics experiments. Modified SynCom were then incubated at 30° C. for 7 days, in aerobic conditions, in two biological replicates. After 7 days of culture, the modified SynCom samples were harvested by centrifugation and pellets were stored at −80° C. prior to metagenomics analysis.
DNA and RNA from SynCom samples were extracted from leftover lysates from metaRibo-Seq sample preparation, stored in Trizol at −80 C. DNA from soil samples was extracted using ZymoBIOMICS DNA miniprep kit (Zymo). DNA-Seq libraries were prepared using Nextera XT library preparation kit with 700 pg DNA input per sample and 6:30 min tagmentation at 55° C. and barcoded using Nextera XT indexes (Illumina). RNA was extracted using RNeasy mini kit (Qiagen), and rRNA was removed using QIAseq FastSelect-5S/16S/23S kit (Qiagen). RNA-Seq libraries were prepared using KAPA RNA HyperPrep kit (Roche) and barcoded using TruSeq indexes (Illumina). Amplification was followed in real time using SYBR-Green and stopped when reaching a plateau.
Adapter sequences were removed from multi-omics sequencing data using TrimGalore (Cutadapt version 1.18), and quality controlled using FastQC version 0.11.9 (Andrews et al. 2010). Trimmed reads were aligned to a custom SynCom database using bowtie2 version 2.3.2. Gene count tables were obtained using Woltka version 0.1.1 (Zhu et al. 2022). Multi-omics gene counts were normalized to reads per kilobase per million (RPKM).

Burkholderia = test: Pre-/probiotic intervention in natural soil, shotgun metagenomics relative abundance; conditions: for Burkholderia's relative abundance: soil+SynCom probiotic+prebiotic versus soil+SynCom probiotic (FIG. 6)
Rhizobium and Variovorax = test: as above; conditions: for relative abundance of Burkholderia's competitors Rhizobium and Variovorax: soil+SynCom probiotic+prebiotic versus soil+SynCom probiotic (FIG. 6)
Procedure: (§1) A soil associated with switchgrass lowland reference genome clone (Missaoui, Boerma, and Bouton 2005) that was sampled from a field located in Texas, USA (28.3325, −98.1175) was used. Fifty gram (50 g) of soil was added to 250 mL of 0.1×R2A culture medium or 0.1×R2A+SynCom inoculum prepared as described above, and this volume was spread in 14 mL culture tubes (5 mL in each tube). 50-500 μL of concentrated, filter-sterilized stocks of the desired substrates and/or 20 μL of the SynCom isolate pure cultures diluted at an OD600 of 0.02 (i.e. approximately 8.10^5 CFU/mL) were then added. Soil samples were then grown at 30° C. for 7 days, in aerobic conditions, in two biological replicates (three replicates for reference soil sample). After 7 days of culture, the soil samples were harvested by centrifugation and pellets were stored at −80° C. prior to metagenomics analysis.
(§2) Soil samples from a switchgrass crop similar to the site from which the SynCom strains were originally isolated, were incubated in 33 different conditions: 0.1×R2A alone (soil control), with and without metabolite additions (prebiotic), and with and without individual SynCom members (probiotic, 8.10^5 CFU/mL), or the whole 16-member SynCom (probiotic consortium, 8.10^5 CFU/mL of each member) (see methods and FIG. 6). Changes in microbial community composition were analyzed by shotgun metagenomics.

Chitinophaga = test: as above; conditions: natural soil in 0.1×R2A, 7 days
Procedure: as §1, §2

Mucilaginibacter = test: as above; conditions: natural soil in 0.1×R2A, 7 days
Procedure: as §1, §2

Paenibacillus = test: as above; conditions: natural soil in 0.1×R2A, 7 days
Procedure: as §1, §2

[1] = natural soil in 0.1×R2A, 7 days

C/C1=C2/[N-][C@H]([C@H](CC(N)=O)[C@@]2(C)CCC(=O)NC[C@H](C)OP(=O)([O-])O[C@H]2[C@@H](O)[C@@H](n3cnc4cc(C)c(C)cc43)O[C@@H]2CO)[C@]2(C)N=C(/C(C)=C3N=C(/C=C4N=C1[C@@H](CCC(N)=O)C\4(C)C)[C@@H](CCC(N)=O)[C@]\3(C)CC(N)=O)[C@@H](CCC(N)=O)[C@]2(C)CC(N)=O.[Co+2] (stereo in doubt) [cobalamin]
change in relative abundance in the community upon metabolite addition (16-member SynCom): did not induce any significant change

N[C@@H](CSSC[C@H](N)C(=O)O)C(=O)O [cystine]
change in relative abundance in the community upon metabolite addition (16-member SynCom): did not induce any significant change

O=C(CO)[C@@H](O)[C@H](O)[C@H](O)CO [fructose]
Burkholderia relative abundance, fold change (Burkholderia; [1]): 3.9 fold change | Burkholderia's relative abundance (Burkholderia): increase in Burkholderia's relative abundance | relative abundance of Burkholderia's competitors (Rhizobium and Variovorax; [1]): decrease of its closest competitors Rhizobium and Variovorax | relative abundance of Burkholderia's competitors Rhizobium and Variovorax (Rhizobium and Variovorax): decrease of its competitors Rhizobium and Variovorax

N[C@@H](CCC(=O)N[C@@H](CS)C(=O)NCC(=O)O)C(=O)O [glutathione]
relative abundance of primary targets (high TE for import protein) after metabolite addition (16-member SynCom): specifically increased primary targets Burkholderia and Chitinophaga | relative abundance of secondary targets (guild competitors) after metabolite addition (16-member SynCom): decreasing their competitors Mucilaginibacter, and Bradyrhizobium | Chitinophaga relative abundance (in words) (Chitinophaga): did not increase Chitinophaga | Mucilaginibacter relative abundance (in words) (Mucilaginibacter): did not decrease Mucilaginibacter abundance

CSCC[C@H](N)C(=O)O [methionine]
change in relative abundance in the community upon metabolite addition (16-member SynCom): did not induce any significant change

NCCCCN [putrescine]
relative abundance of primary targets (high TE for import protein) after metabolite addition (16-member SynCom): specifically increased Paenibacillus and Rhodococcus | relative abundance of secondary targets (guild competitors) after metabolite addition (16-member SynCom): reducing competitors Rhizobium, Bradyrhizobium, and Mucilaginibacter

O=C[C@H](O)[C@H](O)[C@H](O)CO [ribose]
relative abundance of primary targets (high TE for import protein) after metabolite addition (16-member SynCom): specific increase of primary targets Paenibacillus and Burkholderia; also recorded: Paenibacillus (increased), Arthobacter and Brevibacillus (not increased) | relative abundance of secondary targets (guild competitors) after metabolite addition (16-member SynCom): specific decrease of Burkholderia's competitors Variovorax, Rhizobium, and Bradyrhizobium | Burkholderia's relative abundance (Burkholderia): increase in Burkholderia's relative abundance | Paenibacillus relative abundance, fold change (Paenibacillus): 3.5 fold change | relative abundance of Burkholderia's competitors Rhizobium and Variovorax (Rhizobium and Variovorax): decrease of its competitors Rhizobium and Variovorax

OC[C@H]1O[C@H](O[C@H]2O[C@H](CO)[C@@H](O)[C@H](O)[C@H]2O)[C@H](O)[C@@H](O)[C@@H]1O [trehalose]
Paenibacillus relative abundance, fold change (Paenibacillus): 5.5 fold change
